{"source": "patent US20240285670A1", "about": "“THERAPEUTIC TREATMENT OF TUMORS BY BLOCKING THE HEME SYNTHESIS-EXPORT AXIS” (Università degli Studi di Torino, priority 2021, published 2024)", "key": {"lung tumor LLC cells": {"system": "lung tumor LLC cells", "assay": "LLC cell viability (CellTiter-Fluor) as readout of proliferation", "format": "cell-based, murine", "conditions": "5 mM ALA at day 0, no medium refresh"}, "SKCO1 cells": {"system": "SKCO1 cells", "assay": "TCA cycle flux in SKCO1 cells", "format": "cell-based, human", "conditions": "FLVCR1a-silenced vs scramble shRNA SKCO1 cells", "source_text": "(§1) TCA cycle flux is reported in the centre of the figure and expressed as pmol CO2/h/mg protein. Data represent mean±SEM, n=3. For statistical analyses, an unpaired Student's t-test was used. **=p<0.01. Moreover, TCA cycle enzymes activities are reported in boxes and expressed as mU/mg mitochondrial proteins. Data represent mean±SEM, n=3. For statistical analyses, an unpaired Student's t-test was used; *=p<0.05, ***=p<0.001. […] Results are expressed as pmol CO2/h/mg protein. Data represent mean±SEM, n=3. For statistical analyses, an unpaired Student's t-test was used; *=p<0.05, **=p<0.01.\nThe glucose flux through TCA cycle was measured by radiolabeling cells with 2 μCi/ml [6-^14C]-glucose (55 mCi/mmol; PerkinElmer, Waltham, MA, USA, catalog n° NEC045X). Cell suspensions were incubated for 1 hour in a closed experimental system to trap the ^14CO2 developed from [^14C]-glucose. The reaction was stopped by injecting 0.5 ml of 0.8N HClO4. The amount of glucose transformed into CO2 through the TCA cycle was calculated as described (Riganti et al., 2004) and expressed as pmoles CO2/h/mg cell proteins."}, "Caco2 cells [1]": {"system": "Caco2 cells", "assay": "Activity of mitochondrial ETC complexes I-IV in Caco2 cells", "format": "cell-based, human", "conditions": "FLVCR1a-silenced vs scramble shRNA Caco2 cells", "source_text": "(A, C, E) Activities of the mitochondrial electron transport chain complexes I-IV. FLVCR1a-silenced Caco2 (A), SKCO1 (C) or C80 cells (E) are compared to cells expressing a scramble shRNA. Results were expressed as nmol NAD^+/min/mg mitochondrial protein for complex I, nmol reduced cytochrome c/min/mg mitochondrial protein for complexes II-III, nmol oxidized cytochrome c/min/mg mitochondrial protein for complex IV. Data represent mean±SEM, n=3. For statistical analyses, an unpaired Student's t-test was used; *=p<0.05, **=p<0.01. (B, D, F) Mitochondrial ATP levels measured by a bioluminescent assay kit. FLVCR1a-silenced Caco2 (B), SKCO1 (D) or C80 cells (F) are compared to cells expressing a scramble shRNA. Results are expressed as nmol/mg mitochondrial proteins. Data represent mean±SEM, n=3. […] Results were expressed as nmol NAD^+/min/mg mitochondrial protein for complex I, nmol reduced cytochrome c/min/mg mitochondrial protein for complexes II-III, nmol oxidized cytochrome c/min/mg mitochondrial protein for complex IV. […] (H) Mitochondrial ATP levels measured by a bioluminescent assay kit in Caco2 cells overexpressing FLVCR1a (indicated as FLVCR1a+) compared to cells stably transduced with an empty vector. Results are expressed as nmol/mg mitochondrial proteins. […]\nThe activity of mitochondria respiration complexes was measured according to (Wibom et al., 2002)."}, "Caco2 cells [2]": {"system": "Caco2 cells", "assay": "TCA cycle flux in Caco2 cells", "format": "cell-based, human", "conditions": "FLVCR1a-silenced vs scramble shRNA Caco2 cells", "source_text": "as §1\n(A) TCA cycle flux in Caco2 cells expressing a scramble shRNA untreated or treated with 25 μM hemin for 2 hours. Moreover, the TCA cycle flux of untreated FLVCR1a-silenced Caco2 cells is reported for comparison. Results are expressed as pmol CO2/h/mg protein. Data represent mean±SEM, n=3. […] Results are expressed as pmol CO2/h/mg protein. […] Results are expressed as pmol CO2/h/mg protein. […]\nThe glucose flux through TCA cycle was measured by radiolabeling cells with 2 μCi/ml [6-^14C]-glucose (55 mCi/mmol; PerkinElmer, Waltham, MA, USA, catalog n° NEC045X). […] The amount of glucose transformed into CO2 through the TCA cycle was calculated as described (Riganti et al., 2004) and expressed as pmoles CO2/h/mg cell proteins."}}, "data": [{"compound": "Cl.NCC(=O)CCC(=O)O", "note": "[5-ALA, 5-Aminolevulinic acid hydrochloride]", "values": [{"measurement": "cell proliferation (cell viability)", "setting": "lung tumor LLC cells", "value": "significantly reduced"}]}, {"compound": "FLVCR1a shRNA: shRNA specifically down-regulating FLVCR1a without targeting FLVCR1b; pLKO.1 lentiviral clone TRCN0000059599, antisense SEQ ID No.: 2 (antisense TTGCTAATGATGCTGTACTGG; sense CCAGTACAGCATCATTAGCAA)", "values": [{"measurement": "TCA cycle flux", "setting": "SKCO1 cells", "value": "Increased TCA cycle flux"}, {"measurement": "activity of mitochondrial respiratory chain complexes", "setting": "Caco2 cells [1]", "value": "increased activity of all the complexes involved in the mitochondrial respiratory chain"}, {"measurement": "total flux of the TCA cycle", "setting": "Caco2 cells [2]", "value": "significantly up-regulated"}]}]}
